Legend:
[1] = system: Splenocyte; assay: Immunosuppressive activity in BALB/c mouse Splenocyte assessed as inhibition of concanavalin A induced T-cell proliferation by [3H]-thymidine incorporation based beta scintillation counter analysis; type: functional
[2] = Selectivity index, ratio of CC50 for BALB/c mouse Splenocyte to IC50 for Immunosuppressive activity in BALB/c mouse Splenocyte assessed as inhibition of LPS-induced B-cell proliferation; type: toxicity; settings: splenocytes, read-out: Ratio CC50/IC50
[3] = system: Splenocyte; assay: Immunosuppressive activity in BALB/c mouse Splenocyte assessed as inhibition of LPS induced B-cell proliferation by [3H]-thymidine incorporation based beta scintillation counter analysis; type: functional
[4] = Cytotoxicity in BALB/c mouse Splenocyte assessed as reduction in cell viability incubated for 48 hrs by CCK-8 assay; type: toxicity, cell-based; settings: splenocytes
[5] = Selectivity index, ratio of CC50 for BALB/c mouse Splenocyte to IC50 for Immunosuppressive activity in BALB/c mouse Splenocyte assessed as inhibition of concanavalin A-induced T-cell proliferation; type: toxicity; settings: splenocytes, read-out: Ratio CC50/IC50

SMILES: C=C[C@H]1[C@H](O[C@@H]2O[C@H](CO)[C@@H](O)[C@H](O)[C@H]2O)OC=C(C(=O)OC)[C@H]1CC(=O)c1[nH]c2ccccc2c1CC(=O)NC
- IC50 [1]: > 200 µM
- selectivity ratio [2]: 3.59
- IC50 [3]: 47.4 µM
- CC50 at 48 h [4]: 170 µM
- selectivity ratio [5]: < 0.85

SMILES: C=C[C@H]1[C@H](O[C@@H]2O[C@H](CO)[C@@H](O)[C@H](O)[C@H]2O)OC=C(C(=O)OC)[C@H]1CC(=O)c1[nH]c2ccccc2c1[C@H](OC)C(=O)NC
- IC50 [1]: > 200 µM
- selectivity ratio [2]: > 548
- IC50 [3]: < 0.38 µM
- CC50 at 48 h [4]: 208 µM
- selectivity ratio [5]: < 1.04

Source: ChEMBL document CHEMBL5143580, “Ophiorrhines F and G, Key Biogenetic Intermediates of Ophiorrhine Alkaloids from Ophiorrhiza japonica and Their Immunosuppressant Activities” (J Nat Prod, 2022)
